Key:
MRP1 [1] = target: T1, MRP1 (Homo sapiens, UniProt P33527)
Description: To investigate if DPV was a substrate or inhibitor of MRP1 or MRP4, ATP-dependent and independent uptake of DPV (in the substrate study) or estradiol 17 β-D-glucuronide (a known MRP1/MRP4 substrate in the inhibitor study) was measured using 50 μg MRP1, MRP4, and control vesicles. […] The uptake assay was performed at a total volume of 50 μL with either 4 mM ATP or AMP, 2 mM glutathione, 10 μM DPV or estradiol 17 β-D-glucuronide as substrates, with and without 20 μM DPV or MK571 as inhibitors. […] To quantify the uptake amount of DPV or estradiol 17 β-D-glucuronide, 4 μCi mL^−1 3H-DPV or ^3H- estradiol 17 β-D-glucuronide was added to the assay mixture.
The vesicular uptake assays were performed under the above-mentioned conditions. The membrane vesicles were first incubated with respective inhibitor solution or blank assay buffer. The reaction was then initiated by adding the remaining components of the assay mixture to the vesicles and incubated at 37 °C for 3 min. To terminate the reaction, 200 μL ice-cold buffer was added to each well. The samples were then transferred to a glass fiber filter plate and washed 5 times by rapid filtration using a vacuum manifold (IBI Scientific, Dubuque, IA, USA). To quantify ^3H-DPV and ^3H-estradiol 17 β-D-glucuronide uptake, the washed vesicles were lysed with scintillation cocktail at room temperature for 20 min. The collected samples were analyzed on an LS6500 liquid scintillation counter (Beckman Coulter, Brea, CA, USA).
If ATP-dependent uptake was observed, the uptake amount by active transport was calculated using Equation (1):(1) Normalized uptake=mean uptake with ATP−mean uptake with AMP

UGT enzymes = system: UGT enzymes; design: method as in PMID 34959473; conditions: cited from earlier work
CYP3A4 = system: CYP3A4; design: method as in PMID 34959473; conditions: cited from earlier work
ENT1 = target: T2, ENT1 (Homo sapiens, UniProt Q99808); assay: Cellular uptake in HEK293 ENT1 and EV cells; assay type: in vitro ADME
T2 construct: host or cells: HEK293
T2 sequence (Q99808 1-456): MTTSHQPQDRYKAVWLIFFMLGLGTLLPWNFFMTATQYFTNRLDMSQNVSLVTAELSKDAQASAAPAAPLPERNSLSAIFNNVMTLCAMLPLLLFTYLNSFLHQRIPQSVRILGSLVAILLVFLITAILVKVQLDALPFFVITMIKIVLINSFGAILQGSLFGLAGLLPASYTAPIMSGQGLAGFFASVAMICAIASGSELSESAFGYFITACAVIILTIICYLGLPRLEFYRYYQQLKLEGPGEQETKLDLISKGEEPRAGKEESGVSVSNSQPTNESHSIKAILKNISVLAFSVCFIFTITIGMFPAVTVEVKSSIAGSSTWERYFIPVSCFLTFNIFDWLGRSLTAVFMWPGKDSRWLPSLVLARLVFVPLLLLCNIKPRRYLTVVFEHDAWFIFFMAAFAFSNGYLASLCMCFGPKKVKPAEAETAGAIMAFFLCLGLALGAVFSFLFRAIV
Description: HEK293 ENT1 and HEK293 EV cells were seeded at a density of 5 x 10^4 cells per well in 24-well plates and cultured for 4 days. Before the uptake assay, cells were starved in serum-free minimum essential medium at 37 °C for 3 h to activate the ENT1 transporter. The assays were performed in Krebs-Ringer buffer with pH 7.4 supplemented with 25 mM sodium bicarbonate and 1.2 mM calcium chloride dihydrate. […] 200 nM nitrobenzylthioinosine was also used as the positive control for ENT1 inhibition.
Starved cells were first incubated with respective inhibitor solution or blank Krebs-Ringer buffer for 30 min at 37 °C. […] To terminate the assay, ice-cold Dulbecco’s phosphate-buffered saline was added to cells. Cells were then washed twice with ice-cold Dulbecco’s phosphate-buffered saline and lysed with 1% SDS at room temperature for 20 min. […] The drug uptake was normalized against protein content. Changes in drug uptake between groups were calculated using the mean uptake values of individual groups.

MRP1 [2] = target: T1, MRP1; assay: ATPase assay (ADP-Glo Max) in MRP1 vesicles; assay type: biochemical; design: purchased Thermo Fisher Scientific; conditions: DPV 20 μM; N-ethylmaleimide-S-glutathione 10 mM; 60 min, 37 °C
Description: ATPase activity of MRP1 or MRP4 in transporter overexpressing membrane vesicles (10 μg of protein per assay) was measured by the ADP-Glo Max assay according to manufacturer’s protocol. The assay quantified the amount of ADP produced by the membrane vesicles over 60 min at 37 °C in the ATPase assay buffer (50 mM Tris-MOPS, 50 mM potassium chloride, 5 mM sodium azide, 2 mM dithiothreitol, 2 mM glutathione, 0.1 mM EGTA-Tris, and 10 mM magnesium chloride at pH 7.0). DPV was tested at 20 μM and compared to the baseline ATPase activity. A known MRP1 substrate, N-ethylmaleimide-S-glutathione (prepared by mixing N-ethylmaleimide and glutathione at a 1:1 molar ratio), at 10 mM and a known MRP4 substrate, prostaglandin E2, at 20 μM were used as positive controls. The reaction was initiated with 5 mM ATP and quenched with the ADP-Glo detection buffer. The amount of ADP produced was quantified by recording luminescence on a SpectraMax M3 plate reader (Molecular Devices, San Jose, CA, USA).

HEC-1-A cells = assay: Tight junction disruption, TEER of HEC-1-A monolayers in Ussing chamber; assay type: cell-based, human; conditions: apical treatment in HBSS without Ca/Mg; DPV 5 μM, MIC 5 μM, combination 5 μM each, EGTA 2 mM
Description: HEC-1-A cells were seeded at a density of 9000 cells per cm^2 onto 0.4 μm permeable snapwell inserts (Corning Inc., Corning, NY, USA). […] Only monolayers displaying TEER values above the threshold indicating confluency (130 Ωcm^2) were considered qualified to be used in this study.
To evaluate tight junction disruption, qualified HEC-1-A cell monolayers were mounted onto the Ussing Chamber apparatus (Physiologic Instruments, San Diego, CA, USA) to monitor TEER values. After equilibrating cells with HBSS at 37 °C for 20 min, buffer in basolateral chambers was replaced with HBSS without calcium or magnesium (HBSS Ca^−&Mg^−), while buffer in the apical chambers was replaced with respective treatment solution in HBSS Ca^−&Mg^-. Treatments included 5 μM DPV, 5 μM MIC, and 5 μM DPV with 5 μM MIC. 2 mM EGTA, a known tight junction disruptor that decreases TEER, was used as the positive control and blank HBSS Ca^-&Mg^- was used as negative control. Cells were incubated at 37 °C for 80 min and the obtained TEER values were normalized against initial measurements at time 0.

T1 sequence (P33527 whole entry): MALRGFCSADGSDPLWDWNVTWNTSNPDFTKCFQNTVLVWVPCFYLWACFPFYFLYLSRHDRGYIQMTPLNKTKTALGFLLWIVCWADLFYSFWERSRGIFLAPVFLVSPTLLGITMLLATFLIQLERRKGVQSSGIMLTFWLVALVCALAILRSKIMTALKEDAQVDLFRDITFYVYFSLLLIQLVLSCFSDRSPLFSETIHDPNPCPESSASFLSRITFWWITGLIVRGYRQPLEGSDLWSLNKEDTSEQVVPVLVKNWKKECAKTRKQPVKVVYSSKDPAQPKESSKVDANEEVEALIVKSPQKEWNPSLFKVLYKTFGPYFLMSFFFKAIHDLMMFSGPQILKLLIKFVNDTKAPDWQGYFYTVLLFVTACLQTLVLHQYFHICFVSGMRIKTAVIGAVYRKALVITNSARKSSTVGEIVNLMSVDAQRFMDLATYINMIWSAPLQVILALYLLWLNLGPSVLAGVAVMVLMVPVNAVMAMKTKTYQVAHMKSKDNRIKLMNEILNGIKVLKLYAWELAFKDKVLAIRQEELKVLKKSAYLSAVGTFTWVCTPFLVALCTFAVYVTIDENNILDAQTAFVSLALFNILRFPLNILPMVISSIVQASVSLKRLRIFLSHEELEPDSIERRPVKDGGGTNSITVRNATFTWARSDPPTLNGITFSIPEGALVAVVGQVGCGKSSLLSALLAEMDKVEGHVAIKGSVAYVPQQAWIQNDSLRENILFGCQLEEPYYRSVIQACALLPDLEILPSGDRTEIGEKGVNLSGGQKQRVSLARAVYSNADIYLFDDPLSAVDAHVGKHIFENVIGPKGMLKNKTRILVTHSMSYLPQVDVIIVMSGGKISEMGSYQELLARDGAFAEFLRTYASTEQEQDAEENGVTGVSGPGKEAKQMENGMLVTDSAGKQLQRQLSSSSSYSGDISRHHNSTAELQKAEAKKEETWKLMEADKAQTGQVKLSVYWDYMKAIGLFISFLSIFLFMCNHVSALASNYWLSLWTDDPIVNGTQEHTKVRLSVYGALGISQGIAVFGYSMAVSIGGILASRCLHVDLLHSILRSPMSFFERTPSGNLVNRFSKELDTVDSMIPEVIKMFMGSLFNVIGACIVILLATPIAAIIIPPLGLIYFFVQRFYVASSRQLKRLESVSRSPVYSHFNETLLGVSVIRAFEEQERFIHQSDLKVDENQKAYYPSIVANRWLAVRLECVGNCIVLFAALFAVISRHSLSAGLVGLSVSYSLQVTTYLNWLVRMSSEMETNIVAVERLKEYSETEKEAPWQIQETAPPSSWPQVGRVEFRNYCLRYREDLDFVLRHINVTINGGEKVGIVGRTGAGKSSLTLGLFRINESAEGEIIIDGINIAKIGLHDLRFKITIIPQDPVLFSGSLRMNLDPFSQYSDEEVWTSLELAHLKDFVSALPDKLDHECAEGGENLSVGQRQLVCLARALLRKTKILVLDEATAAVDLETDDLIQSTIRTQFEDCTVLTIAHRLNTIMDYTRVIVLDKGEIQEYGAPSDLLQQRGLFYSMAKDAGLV

Substrate status for MRP1 (MRP1 [1]): not a substrate | Normalized estradiol 17 β-D-glucuronide uptake by MRP1 vesicles co-incubated with inhibitor (MRP1 [1]; 10 μM substrate, 20 μM test inhibitor, ATP minus AMP): 35.83 fmol | Active uptake of estradiol 17 β-D-glucuronide by MRP1 vesicles, reduced to % of control (MRP1 [1]; 20 µM): not significantly affected | Cellular uptake of thymidine in HEK293 ENT1 cells, reduced to % of control (ENT1; 5 nM thymidine, nitrobenzylthioinosine 200 nM, DPV 5 μM): no significant impact | Cellular uptake of DPV in HEK293 ENT1 cells compared with HEK293 EV cells (ENT1; 0.5 μM DPV, 10 min, 37 °C): similar | Substrate status for ENT1 (ENT1; cellular system): not a substrate | ATPase activity in MRP1 vesicles, % of baseline (MRP1 [2]): no significant stimulation | Relative TEER percentage of baseline value at 80 min (HEC-1-A cells): 94.7 ± 7.8%
SMILES: Cc1cc(C)c(Nc2ccnc(Nc3ccc(C#N)cc3)n2)c(C)c1 [DPV, dapivirine]
Substrate of UGT enzymes (UGT enzymes): not a substrate | Substrate of CYP3A4 (CYP3A4): substrate
